In brackets after ≈: the same amount, converted by molar mass. Where two headings read alike, the source gives them in different places.
Tests used:
[1] = tested on: fungi; details: cited from earlier work
[2] = tested on: Candida albicans ATCC 10231; experiment: plate test procedure for anti-Candida activity, strain ATCC 10231; type: cell-based
Procedure: (§1) Immunosuppressive activity was evaluated in an in vitro standard pharmacological test procedure to measure lymphocyte proliferation (LAF) and in an in vivo procedure to evaluate the survival time of a pinch skin graft. Antifungal activity was determined against five strains of Candida albicans.
(§2) Antifungal activity of the compounds of this invention is measured against 5 strains of Candida albicans using a plate test procedure for measurement of inhibition. The following represents the typical procedure used. The compound to be tested is placed on sterile dried 1/4" plate disks, and allowed to dry. Agar plates are seeded with fungi and allowed to solidify. The impregnated disks are placed on the seeded Agar surface and incubated for the time required for the particular culture. Results shown in Table II are expressed in Minimum Inhibitory Concentration (MIC) (μg/ml) to inhibit growth.

[3] = tested on: thymocyte proliferation (lymphocyte proliferation, LAF); experiment: comitogen-induced thymocyte proliferation procedure (LAF); type: cell-based, normal BALB/c mice; details: Mus musculus, 72 h, mouse thymocytes, 72 hours with PHA and IL-1, test compound (Analogs)
Procedure: as §1
(§3) Immunosuppressive activity was evaluated in an in vitro standard pharmacological test procedure to measure lymphocyte proliferation (LAF) and in one in vivo standard pharmacological test procedure to evaluate the survival time of a pinch skin graft.
The comitogen-induced thymocyte proliferation procedure (LAF) was used as an in vitro measure of the immunosuppressive effects of representative compounds. Briefly, cells from the thymus of normal BALB/c mice were cultured for 72 hours with PHA and IL-1 and pulsed with tritiated thymidine during the last six hours. Cell are cultured with and without various concentrations of rapamycin, cyclosporin A, or test compound. Cells are harvested and incorporated; radiactivity is determined. Inhibition of lymphoproliferation is assessed in percent change in counts per minute from non-drug treated controls. The results are expressed by the following ratio: [formula] or as percent inhibition or IC50.

[4] = tested on: Candida albicans ATCC 38248; experiment: plate test procedure for anti-Candida activity, strain ATCC 38248; type: cell-based
Procedure: as §1, §2

[5] = tested on: pinch skin graft (allograft); experiment: in vivo pinch skin graft survival (Skin Graft Model); design: species or system mice: male BALB/c donors, male C3 H recipients; details: intraperitoneally once daily for 6 consecutive days; mean ± S.D.; dose not given
Procedure: as §1, §3
The in vivo test procedure is designed to determine the survival time of pinch skin graft from male BALB/c donors transplanted to male C3 H recipients. The method is adapted from Billingham R. E. and Medawar P. B., J. Exp. Biol. 28:385-402, (1951). Briefly, a pinch skin graft from the donor is grafted on the dorsum of the recipient as a allograft, and an isograft is used as control in the same region. The recipients are treated with the test compound, intraperitoneally once daily for 6 consecutive days. Untreated recipients serve as rejection control. The graft is monitored daily and observations are recorded until the graft becomes 95% area necrosis or the suture line is off. This is considered as the rejection day. The graft survival time is one day before the rejection day. The mean graft survival time (number of days ±S.D.) of the drug treatment group is compared with the control group.

[6] = tested on: Candida albicans ATCC 38247; experiment: plate test procedure for anti-Candida activity, strain ATCC 38247; type: cell-based
Procedure: as §1, §2

[7] = tested on: Candida albicans 3669; experiment: plate test procedure for anti-Candida activity, strain 3669; type: cell-based
Procedure: as §1, §2

[8] = tested on: Candida albicans ATCC 38246; experiment: plate test procedure for anti-Candida activity, strain ATCC 38246; type: cell-based
Procedure: as §1, §2

[9] = tested on: transplant rejection; details: cited from earlier work
[10] = tested on: adjuvant arthritis model, a model for rheumatoid arthritis; details: in vivo; cited from earlier work
[11] = tested on: formation of IgE-like antibodies; details: in vivo; cited from earlier work
[12] = tested on: Candida albicans; details: in vitro and in vivo; cited from earlier work
[13] = tested on: tumor; details: alone or in combination with picibanil; cited from earlier work
[14] = tested on: experimental allergic encephalomyelitis model, a model for multiple sclerosis; details: in vivo; cited from earlier work
[15] = ATCC10231, Candida albicans ATCC 10231, plate test, read-out: Minimal Inhibitory Concentration (MIC), ATCC 10231
[16] = ATCC38248, Candida albicans ATCC 38248, plate test, read-out: Minimal Inhibitory Concentration (MIC), ATCC 38248
[17] = ATCC38247, Candida albicans ATCC 38247, plate test, read-out: Minimal Inhibitory Concentration (MIC), ATCC 38247
[18] = Candida albicans 3669, plate test, read-out: Minimal Inhibitory Concentration (MIC), 3669
[19] = ATCC38246, Candida albicans ATCC 38246, plate test, read-out: Minimal Inhibitory Concentration (MIC), ATCC 38246

| Compound | MIC [2, 15] | IC50 [3] | MIC [4, 16] | Skin Graft Model (Survival time days) [5] | MIC [6, 17] | MIC [7, 18] | MIC [8, 19] | inhibition of transplant rejection / immunosuppressive effect [9] | other results |
| --- | --- | --- | --- | --- | --- | --- | --- | --- | --- |
| 33-desmethylrapamycin | – | – | – | – | – | – | – | – | antifungal and immunosuppressant activities [1]: antifungal and immunosuppressant activities |
| CO[C@H]1C[C@@H]2CC[C@@H](C)[C@@](O)(O2)C(=O)C(=O)N2CCCC[C@H]2C(=O)O[C@H]([C@H](C)C[C@@H]2CC[C@@H](OC(=O)NC(=O)c3ccccc3)[C@H](OC)C2)CC(=O)[C@H](C)/C=C(\C)[C@@H](O)[C@@H](OC)C(=O)[C@H](C)C[C@H](C)/C=C/C=C/C=C/1C [Example 1, Rapamycin 42-ester with benzoylcarbamic acid] | 0.05 µg/mL (≈ 0.0471 µM) | 1.4 nM | 0.1 µg/mL (≈ 0.0942 µM) | 10.5 ± 0.55 days | 0.05 µg/mL (≈ 0.0471 µM) | 0.1 µg/mL (≈ 0.0942 µM) | 0.1 µg/mL (≈ 0.0942 µM) | – | – |
| CO[C@H]1C[C@@H]2CC[C@@H](C)[C@@](O)(O2)C(=O)C(=O)N2CCCC[C@H]2C(=O)O[C@H]([C@H](C)C[C@@H]2CC[C@@H](OC(=O)NC(=O)c3ccccc3)[C@H](OC)C2)CC(=O)[C@H](C)/C=C(\C)[C@@H](OC(=O)CN(C)C)[C@@H](OC)C(=O)[C@H](C)C[C@H](C)/C=C/C=C/C=C/1C [Example 2, Rapamycin 31-ester with N,N-dimethylglycine, 42-ester with benzoylcarbamic acid] | 0.1 µg/mL (≈ 0.0872 µM) | 4.8 nM | 0.4 µg/mL (≈ 0.349 µM) | 10.4 ± 0.55 days | 0.1 µg/mL (≈ 0.0872 µM) | 0.4 µg/mL (≈ 0.349 µM) | 0.4 µg/mL (≈ 0.349 µM) | – | – |
| CO[C@H]1C[C@@H]2CC[C@@H](C)[C@@](O)(O2)C(=O)C(=O)N2CCCC[C@H]2C(=O)O[C@H]([C@H](C)C[C@@H]2CC[C@@H](OC(=O)NC(=O)c3ccccc3)[C@H](OC)C2)CC(=O)[C@H](C)/C=C(\C)[C@@H](OC(=O)NC(=O)c2ccccc2)[C@@H](OC)C(=O)[C@H](C)C[C@H](C)/C=C/C=C/C=C/1C [Example 3, Rapamycin 31,42 diester with benzoylcarbamic acid] | – | 1.2 nM | – | – | – | – | – | – | – |
| COC(=O)NC(=O)O[C@@H]1CC[C@@H](C[C@@H](C)[C@@H]2CC(=O)[C@H](C)/C=C(\C)[C@@H](O)[C@@H](OC)C(=O)[C@H](C)C[C@H](C)/C=C/C=C/C=C(\C)[C@@H](OC)C[C@@H]3CC[C@@H](C)[C@@](O)(O3)C(=O)C(=O)N3CCCC[C@H]3C(=O)O2)C[C@H]1OC [Example 4, Rapamycin 42-ester with N-methoxycarbonylcarbamic acid] | 0.05 µg/mL (≈ 0.0492 µM) | 2.7 nM | 0.1 µg/mL (≈ 0.0985 µM) | 10.33 ± 0.52 days | 0.05 µg/mL (≈ 0.0492 µM) | 0.2 µg/mL (≈ 0.197 µM) | 0.2 µg/mL (≈ 0.197 µM) | – | – |
| C=CC[C@@H]1/C=C(\C)C[C@H](C)C[C@H](OC)[C@H]2O[C@@](O)(C(=O)C(=O)N3CCCC[C@H]3C(=O)O[C@H](/C(C)=C/[C@@H]3CC[C@@H](O)[C@H](OC)C3)[C@H](C)[C@@H](O)CC1=O)[C@H](C)C[C@@H]2OC [FK-506] | – | – | – | – | – | – | – | effective as immunosuppressive agents | – |
| CO[C@H]1C[C@@H]2CC[C@@H](C)[C@@](O)(O2)C(=O)C(=O)N2CCCC[C@H]2C(=O)O[C@H]([C@H](C)C[C@@H]2CC[C@@H](O)[C@H](OC)C2)CC(=O)[C@H](C)/C=C(\C)[C@@H](O)[C@@H](OC)C(=O)[C@H](C)C[C@H](C)/C=C/C=C/C=C/1C [Rapamycin] | – | – | – | > 12.0 days | – | – | – | effective in inhibiting transplant rejection | effect in adjuvant arthritis model [10]: effective; MIC ([2]; Candida albicans, ATCC10231, read-out: Minimal Inhibitory Concentration (MIC), ATCC 10231): 0.003 µg/mL (≈ 0.00328 µM); inhibition of formation of IgE-like antibodies [11]: effectively inhibited the formation of IgE-like antibodies; antifungal activity [12]: antifungal activity, particularly against Candida albicans, both in vitro and in vivo; MIC ([4]; Candida albicans, ATCC38248, read-out: Minimal Inhibitory Concentration (MIC), ATCC 38248): 0.006 µg/mL (≈ 0.00656 µM); antitumor activity [13]: shown to have antitumor activity; MIC ([6]; Candida albicans, ATCC38247, read-out: Minimal Inhibitory Concentration (MIC), ATCC 38247): 0.003 µg/mL (≈ 0.00328 µM); effect in experimental allergic encephalomyelitis model [14]: effective; MIC ([7]; Candida albicans, 3669, read-out: Minimal Inhibitory Concentration (MIC), 3669): 0.025 µg/mL (≈ 0.0273 µM); MIC ([8]; Candida albicans, ATCC38246, read-out: Minimal Inhibitory Concentration (MIC), ATCC 38246): 0.025 µg/mL (≈ 0.0273 µM) |
| Cyclosporin A | – | – | – | – | – | – | – | effective as immunosuppressive agents | – |

From patent US5262423A, “Rapamycin arylcarbonyl and alkoxycarbonyl carbamates as immunosuppressive and antifungal agents” (American Home Products Corporation, priority 1992, dated 1993)
